Measurements published in US11046699B2, “Pyrazolo-pyrimidin-amino-cycloalkyl compounds and their therapeutic uses” (RAPT THERAPEUTICS, INC., priority 2018, dated 2021).

molecular target: GCN2 (Homo sapiens, UniProt Q9P2K8); assay: GCN2 enzymatic endpoint assay: phosphorylation of GFP-eIF2α measured by TR-FRET (Lanthascreen); format: biochemical; conditions: tested as described in Example 77; compound and/or hydrochloride, dihydrochloride or trifluoroacetic acid salt; read-out: IC 50 Activity
In short: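 Read-out is the TR-FRET ratio of acceptor signal at 520 nm to terbium donor at 495 nm, rising with antibody binding to phosphorylated GFP-eIF2α. Endpoint format: 2 μM ATP, 80 nM substrate, 90 minutes at room temperature, EDTA stop.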

Sequence of GCN2 (Q9P2K8 whole entry): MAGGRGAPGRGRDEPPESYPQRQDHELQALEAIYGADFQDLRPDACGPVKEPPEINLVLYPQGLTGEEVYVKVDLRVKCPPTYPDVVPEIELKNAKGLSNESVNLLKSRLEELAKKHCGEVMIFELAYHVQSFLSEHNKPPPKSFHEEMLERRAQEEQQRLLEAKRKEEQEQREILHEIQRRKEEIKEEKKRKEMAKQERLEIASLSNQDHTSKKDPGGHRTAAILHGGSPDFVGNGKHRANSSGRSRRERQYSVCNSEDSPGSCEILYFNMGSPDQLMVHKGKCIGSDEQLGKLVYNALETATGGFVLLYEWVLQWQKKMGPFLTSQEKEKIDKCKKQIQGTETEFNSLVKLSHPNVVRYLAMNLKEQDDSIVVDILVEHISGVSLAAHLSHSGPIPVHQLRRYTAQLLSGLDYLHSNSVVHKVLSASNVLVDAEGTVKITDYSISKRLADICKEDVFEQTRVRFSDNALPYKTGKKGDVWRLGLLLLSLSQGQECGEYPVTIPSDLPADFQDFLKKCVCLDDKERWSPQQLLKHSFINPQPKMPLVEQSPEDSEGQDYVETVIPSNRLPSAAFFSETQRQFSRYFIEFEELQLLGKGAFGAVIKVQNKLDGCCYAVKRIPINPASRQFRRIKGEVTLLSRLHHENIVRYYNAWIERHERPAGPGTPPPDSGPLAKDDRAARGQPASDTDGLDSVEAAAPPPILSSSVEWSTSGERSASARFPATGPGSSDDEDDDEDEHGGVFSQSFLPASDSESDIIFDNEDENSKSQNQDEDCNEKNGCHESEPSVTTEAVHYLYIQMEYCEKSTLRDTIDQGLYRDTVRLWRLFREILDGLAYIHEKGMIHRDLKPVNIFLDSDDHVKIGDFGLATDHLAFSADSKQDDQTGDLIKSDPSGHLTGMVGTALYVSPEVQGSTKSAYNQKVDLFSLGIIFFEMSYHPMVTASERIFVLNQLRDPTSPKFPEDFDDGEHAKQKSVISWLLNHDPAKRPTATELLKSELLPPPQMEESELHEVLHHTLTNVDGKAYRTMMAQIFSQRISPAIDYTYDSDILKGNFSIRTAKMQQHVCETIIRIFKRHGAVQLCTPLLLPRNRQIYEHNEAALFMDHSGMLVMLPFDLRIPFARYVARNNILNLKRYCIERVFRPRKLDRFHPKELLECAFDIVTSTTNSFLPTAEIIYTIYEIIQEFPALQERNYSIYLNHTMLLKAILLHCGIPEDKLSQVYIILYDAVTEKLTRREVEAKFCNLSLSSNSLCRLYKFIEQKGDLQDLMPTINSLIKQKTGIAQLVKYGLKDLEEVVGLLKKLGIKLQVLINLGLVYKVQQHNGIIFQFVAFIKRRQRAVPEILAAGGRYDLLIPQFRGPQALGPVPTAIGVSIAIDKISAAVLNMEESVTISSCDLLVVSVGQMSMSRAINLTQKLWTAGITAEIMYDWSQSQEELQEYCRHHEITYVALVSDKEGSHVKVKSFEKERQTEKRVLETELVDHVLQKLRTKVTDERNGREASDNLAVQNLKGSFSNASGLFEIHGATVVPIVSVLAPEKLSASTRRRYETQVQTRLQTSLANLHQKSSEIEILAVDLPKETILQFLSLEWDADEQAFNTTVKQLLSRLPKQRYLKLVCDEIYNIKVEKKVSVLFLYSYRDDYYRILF

IC50 | SMILES
25 to 200 nM | CNC(=O)C1(C)CC[C@@H](Nc2ncc3c(Br)nn(-c4ccc5cnc(OC)cc5c4)c3n2)C1 (stereo partly drawn) [(3R)-3-[[3-bromo-1-(3-methoxy-6-isoquinolyl)pyrazolo[3,4-d]pyrimidin-6-yl]amino]-N,1-dimethyl-cyclopentane-carboxamide]
25 to 200 nM | CNC(=O)C1(C)CC[C@@H](Nc2ncc3c(Br)nn(-c4ccc5nc(C)cc(Cl)c5c4)c3n2)C1 (stereo partly drawn) [(3R)-3-[[3-bromo-1-(4-chloro-2-methyl-6-quinolyl)pyrazolo[3,4-d]pyrimidin-6-yl]amino]-N,1-dimethyl-cyclopentane-carboxamide]
25 to 200 nM | CNC(=O)C1(C)CC[C@@H](Nc2ncc3c(Br)nn(-c4ccc5[nH]c(=O)cc(C)c5c4)c3n2)C1 (stereo partly drawn) [(3R)-3-[[3-bromo-1-(4-methyl-2-oxo-1H-quinolin-6-yl)pyrazolo[3,4-d]pyrimidin-6-yl]amino]-N,1-dimethyl-cyclopentanecarboxamide]
25 to 200 nM | CNC(=O)C1(C)CC[C@@H](Nc2ncc3c(Br)nn(-c4ccc(-c5cnccn5)cc4)c3n2)C1 (stereo partly drawn) [(3R)-3-[[3-bromo-1-(4-pyrazin-2-ylphenyl)pyrazolo[3,4-d]pyrimidin-6-yl]amino]-N,1-dimethyl-cyclopentanecarboxamide]
< 25 nM | CNC(=O)C1(C)CC[C@@H](Nc2ncc3c(Br)nn(-c4cc(C#N)c5nccc(C)c5c4)c3n2)C1 (stereo partly drawn) [(3R)-3-[[3-bromo-1-(8-cyano-4-methyl-6-quinolyl)pyrazolo[3,4-d]pyrimidin-6-yl]amino]-N,1-dimethyl-cyclopentane-carboxamide]
25 to 200 nM | CC1(C(=O)NCC(F)(F)F)CC[C@@H](Nc2ncc3c(Br)nn(-c4cc(F)c5ncccc5c4)c3n2)C1 (stereo partly drawn) [(3R)-3-[[3-bromo-1-(8-fluoro-6-quinolyl)pyrazolo[3,4-d]pyrimidin-6-yl]amino]-1-methyl-N-(2,2,2-trifluoroethyl)cyclo-pentanecarboxamide]
25 to 200 nM | CCN(CC)C(=O)C1(C)CC[C@@H](Nc2ncc3c(Br)nn(-c4cc(F)c5ncccc5c4)c3n2)C1 (stereo partly drawn) [(3R)-3-[[3-bromo-1-(8-fluoro-6-quinolyl)pyrazolo[3,4-d]pyrimidin-6-yl]amino]-N,N-diethyl-1-methyl-cyclopentanecarboxamide]
< 25 nM | CC1(C(=O)NC2(C#N)CC2)CC[C@@H](Nc2ncc3c(Br)nn(-c4cc(F)c5ncccc5c4)c3n2)C1 (stereo partly drawn) [(3R)-3-[[3-bromo-1-(8-fluoro-6-quinolyl)pyrazolo[3,4-d]pyrimidin-6-yl]amino]-N-(1-cyanocyclopropyl)-1-methyl-cyclopentane-carboxamide]
25 to 200 nM | CC1(C(=O)NCC(F)F)CC[C@@H](Nc2ncc3c(Br)nn(-c4cc(F)c5ncccc5c4)c3n2)C1 (stereo partly drawn) [(3R)-3-[[3-bromo-1-(8-fluoro-6-quinolyl)pyrazolo[3,4-d]pyrimidin-6-yl]amino]-N-(2,2-difluoroethyl)-1-methyl-cyclopentane-carboxamide]
25 to 200 nM | CC1(C(=O)NCCF)CC[C@@H](Nc2ncc3c(Br)nn(-c4cc(F)c5ncccc5c4)c3n2)C1 (stereo partly drawn) [(3R)-3-[[3-bromo-1-(8-fluoro-6-quinolyl)pyrazolo[3,4-d]pyrimidin-6-yl]amino]-N-(2-fluoroethyl)-1-methyl-cyclopentane-carboxamide]
25 to 200 nM | CNC(=O)C1(C)CC[C@@H](Nc2ncc3c(Br)nn(-c4ccc5nc(C(C)(C)O)ccc5c4)c3n2)C1 (stereo partly drawn) [(3R)-3-[[3-bromo-1-[2-(1-hydroxy-1-methyl-ethyl)-6-quinolyl]pyrazolo[3,4-d]pyrimidin-6-yl]amino]-N,1-dimethyl-cyclopentane-carboxamide]
25 to 200 nM | CNC(=O)C1(C)CC[C@@H](Nc2ncc3c(Br)nn(-c4cccc(C(C)(C)O)c4)c3n2)C1 (stereo partly drawn) [(3R)-3-[[3-bromo-1-[3-(1-hydroxy-1-methyl-ethyl)phenyl]pyrazolo[3,4-d]pyrimidin-6-yl]amino]-N,1-dimethyl-cyclopentane-carboxamide]
25 to 200 nM | CNC(=O)C1(C)CC[C@@H](Nc2ncc3c(Br)nn(-c4cc(OC(F)(F)F)cc(C(C)O)c4)c3n2)C1 (stereo partly drawn) [(3R)-3-[[3-bromo-1-[3-(1-hydroxyethyl)-5-(trifluoromethoxy)phenyl]pyrazolo [3,4-d]pyrimidin-6-yl]amino]-N,1-dimethyl-cyclopentanecarboxamide]
25 to 200 nM | CNC(=O)C1(CCC#N)CC[C@@H](Nc2ncc3c(Br)nn(-c4ccc(-c5nnc(C)s5)c(CCC#N)c4)c3n2)C1 (stereo partly drawn) [(3R)-3-[[3-bromo-1-[3-(2-cyanoethyl)-4-(5-methyl-1,3,4-thiadiazol-2-yl)phenyl]pyrazolo[3,4-d]pyrimidin-6-yl]amino]-1-(2-cyanoethyl)-N-methyl-cyclopentanecarboxamide]
25 to 200 nM | CNS(=O)(=O)C1CC[C@@H](Nc2ncc3c(Br)nn(-c4ccc(-c5nnc(C)s5)c(CCC#N)c4)c3n2)C1 (stereo partly drawn) [(3R)-3-[[3-bromo-1-[3-(2-cyanoethyl)-4-(5-methyl-1,3,4-thiadiazol-2-yl)phenyl]pyrazolo[3,4-d]pyrimidin-6-yl]amino]-N-methyl-cyclopentanesulfonamide]
25 to 200 nM | CNC(=O)C1(C)CC[C@@H](Nc2ncc3c(Br)nn(-c4cccc(CCCO)c4)c3n2)C1 (stereo partly drawn) [(3R)-3-[[3-bromo-1-[3-(3-hydroxypropyl)phenyl]pyrazolo[3,4-d]pyrimidin-6-yl]amino]-N,1-dimethyl-cyclopentane-carboxamide]
25 to 200 nM | CNC(=O)C1(C)CC[C@@H](Nc2ncc3c(Br)nn(-c4cc(CO)cc(OC)c4)c3n2)C1 (stereo partly drawn) [(3R)-3-[[3-bromo-1-[3-(hydroxymethyl)-5-methoxy-phenyl]pyrazolo[3,4-d]pyrimidin-6-yl]amino]-N,1-dimethyl-cyclopentanecarboxamide]
25 to 200 nM | CNC(=O)C1(C)CC[C@@H](Nc2ncc3c(Br)nn(-c4cc(C)cc(CO)c4)c3n2)C1 (stereo partly drawn) [(3R)-3-[[3-bromo-1-[3-(hydroxymethyl)-5-methyl-phenyl]pyrazolo[3,4-d]pyrimidin-6-yl]amino]-N,1-dimethyl-cyclopentanecarboxamide]
25 to 200 nM | CNCc1cc(OC(F)(F)F)cc(-n2nc(Br)c3cnc(N[C@@H]4CCC(C)(C(=O)NC)C4)nc32)c1 (stereo partly drawn) [(3R)-3-[[3-bromo-1-[3-(methylaminomethyl)-5-(trifluoromethoxy)phenyl]pyrazolo[3,4-d]pyrimidin-6-yl]amino]-N,1-dimethyl-cyclopentanecarboxamide]
25 to 200 nM | CNC(=O)C1(C)CC[C@@H](Nc2ncc3c(Br)nn(-c4cc(Cl)cc(CO)c4)c3n2)C1 (stereo partly drawn) [(3R)-3-[[3-bromo-1-[3-chloro-5-(hydroxy-methyl)phenyl]pyrazolo[3,4-d]pyrimidin-6-yl]amino]-N,1-dimethyl-cyclopentane-carboxamide]
25 to 200 nM | CNS(=O)(=O)C1CC[C@@H](Nc2ncc3c(Br)nn(-c4ccc(-c5nnc(C)s5)c(C#N)c4)c3n2)C1 (stereo partly drawn) [(3R)-3-[[3-bromo-1-[3-cyano-4-(5-methyl-1,3,4-thiadiazol-2-yl)phenyl]pyrazolo[3,4-d]pyrimidin-6-yl]amino]-N-methyl-cyclopentanesulfonamide]
25 to 200 nM | CNC(=O)C1(C)CC[C@@H](Nc2ncc3c(Br)nn(-c4cc(F)cc(CO)c4)c3n2)C1 (stereo partly drawn) [(3R)-3-[[3-bromo-1-[3-fluoro-5-(hydroxymethyl)phenyl]pyrazolo[3,4-d]pyrimidin-6-yl]amino]-N,1-dimethyl-cyclopentanecarboxamide]
